Measurements reported in patent US9850283B2, “Macrocyclic inhibitors of the PD-1/PD-L1 and CD80(B7-1)/PD-L1 protein/protein interactions” (BRISTOL-MYERS SQUIBB COMPANY, priority 2013, dated 2017).
pEC50, pIC50: −log10 of the molar value. Where two headings read alike, the source gives them in different places. One block for each compound: values may come before it. Positions of bridges follow the written chain, without caps; N, C: chain ends. Non-standard residues stand in square brackets, D forms with d. Residues, ends and D or L forms follow the SMILES beside them. ξ: configuration not given here. Phe(3,4,5-F3) = N[C@@H](Cc1cc(F)c(F)c(F)c1)C(=O)O; d(cisHyp) = O=C(O)[C@H]1C[C@@H](O)CN1; Bta = N[C@@H](Cc1csc2ccccc12)C(=O)O; Hyp = O=C(O)[C@@H]1C[C@@H](O)CN1; NMeF = CN[C@@H](Cc1ccccc1)C(=O)O; dNMeNle = CCCC[C@@H](NC)C(=O)O; NMeNle = CCCC[C@H](NC)C(=O)O; dPip = O=C(O)[C@H]1CCCCN1; NMeA = CN[C@@H](C)C(=O)O; dDap = NC[C@@H](N)C(=O)O; Dab = NCC[C@H](N)C(=O)O; Dap = NC[C@H](N)C(=O)O; ξP = O=C(O)C1CCCN1; ξC = NC(CS)C(=O)O

Legend:
CMV-specific T cells = CMV-specific T cells (Homo sapiens, UniProt Q9NZQ7); experiment: CMV-specific T cell function assay (IFNγ secretion, ELISA); format: cell-based
CMV-specific T cells, sequence (Q9NZQ7 19-290): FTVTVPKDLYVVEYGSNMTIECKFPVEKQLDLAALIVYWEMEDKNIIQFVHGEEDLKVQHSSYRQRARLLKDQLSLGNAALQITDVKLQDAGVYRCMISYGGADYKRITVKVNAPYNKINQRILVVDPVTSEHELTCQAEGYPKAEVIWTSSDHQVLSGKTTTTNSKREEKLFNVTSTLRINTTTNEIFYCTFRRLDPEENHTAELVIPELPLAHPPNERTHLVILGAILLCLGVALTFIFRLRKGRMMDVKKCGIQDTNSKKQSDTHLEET
Experimental: CMV-specific T Cell Function Assay. […] AIM-V medium (Life Technologies, Grand Island, N.Y.) supplemented with 10% heat-inactivated fetal bovine serum (FBS, Sigma, St Louis, Mo.) was used at a total volume of 200 µL/well in triplicate. The cells were cultured for 4 days at 37° C., 5% CO2 at which time culture supernatant was harvested for determination of secreted IFNγ by ELISA (OptEIA hIFNγ ELISA Kit, BD Biosciences, San Jose, Calif.).

Human PD-L1/PD-1 = molecular target: T1, Human PD-L1/PD-1 (Homo sapiens, UniProt Q9NZQ7); experiment: HTRF PD-1-Ig/PD-L1-His binding assay (human PD-L1)
T1 construct: made in house; host or cells: HEK293T
T1 sequence (Q9NZQ7 with tags, fused parts or gaps): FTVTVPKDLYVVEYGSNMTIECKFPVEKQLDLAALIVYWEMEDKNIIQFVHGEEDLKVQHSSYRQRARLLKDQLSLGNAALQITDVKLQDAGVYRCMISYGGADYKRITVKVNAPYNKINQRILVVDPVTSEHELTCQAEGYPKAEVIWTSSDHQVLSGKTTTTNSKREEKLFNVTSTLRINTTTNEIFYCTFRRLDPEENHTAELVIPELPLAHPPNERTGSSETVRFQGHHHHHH
Procedure, shortened: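 Readout: time-resolved FRET between Eu cryptate-labeled anti-Ig (1 nM final) and APC-labeled anti-His (20 nM final) antibodies. These detect interaction of Fc-fused PD-1 with His-tagged human PD-L1 in dPBS containing 0.1% BSA and 0.05% Tween-20.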

[1] = molecular target: T2, LK35.2-hPD-L1 cells / PE-labeled PD-1-Ig (Homo sapiens, UniProt Q9NZQ7); experiment: LK35.2-hPD-L1 cell binding high-content screening assay; format: cell-based
T2 construct: expressed in transfected cells; host or cells: LK35.2 mouse B cell line
T2 sequence (Q9NZQ7 19-290): as the sequence (Q9NZQ7 19-290) above
Procedure, shortened: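 Compound effect on PD-1/PD-L1 binding is measured by imaging cell-associated phycoerythrin signal. Human PD-1-Ig (PE on Ig tag, 1 nM final) is applied with compound to a murine B cell line overexpressing human PD-L1 for 1 h at 37 °C in serum-containing RPMI.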

[2] = numeric value, read-out: CMV Recall EC50 values
[3] = numeric value, read-out: HTRF IC50 values
[4] = cell binding assay, cell line not given, numeric value, read-out: CBA IC50 values
[5] = read-out: CMV Recall EC50 value
[6] = cluster symbol, read-out: HTRF IC50 cluster

pEC50 (CMV-specific T cells; value given instead of cluster, read-out: CMV Recall EC50 value): 7.85
pIC50 (Human PD-L1/PD-1; value given instead of cluster, read-out: HTRF IC50 value): 7.98
pIC50 ([1]; cell binding assay, cell line not given, value given instead of cluster, read-out: CBA IC50 value): 9.00
Structure (SMILES): CCCC[C@H]1C(=O)N(C)[C@@H](CCCC)C(=O)N[C@@H](CC(C)C)C(=O)N[C@H](C(=O)NCC(N)=O)CSCC(=O)N[C@@H](Cc2ccc(O)cc2)C(=O)N(C)[C@@H](C)C(=O)N[C@@H](CC(N)=O)C(=O)N2CCC[C@H]2C(=O)N[C@@H](CN)C(=O)N[C@@H](CCC(=O)O)C(=O)N2C[C@H](O)C[C@H]2C(=O)N[C@@H](Cc2c[nH]c3ccccc23)C(=O)N[C@@H](CO)C(=O)N[C@@H](Cc2c[nH]c3ccccc23)C(=O)N1C [Example 5071] ({CH2CO}-Y[NMeA]NP[Dap]E[Hyp]WSW[NMeNle][NMeNle]LCG-NH2; thioether N-14)

pEC50 (CMV-specific T cells; [5]): < 5.60
pIC50 (Human PD-L1/PD-1; [6]): < 7.52
pIC50 ([1]; cluster symbol, cell line of CBA not given (LK35.2-hPD-L1 or 293T-hPD-L1), read-out: CBA IC50 cluster): < 7.13
Structure (SMILES): CCCC[C@@H]1C(=O)N(C)[C@H](CCCC)C(=O)N[C@@H](C)C(=O)N[C@@H](C(=O)NCC(N)=O)CSCC(=O)N[C@@H](Cc2ccc(O)cc2)C(=O)N2CCCC2C(=O)N[C@H](CC(=O)O)C(=O)N2CCC[C@H]2C(=O)N[C@H](CN)C(=O)N[C@@H](CC(=O)O)C(=O)N2CCCC2C(=O)N[C@H](Cc2c[nH]c3ccccc23)C(=O)N[C@@H](CCN)C(=O)N[C@@H](Cc2c[nH]c3ccccc23)C(=O)N1C (stereo partly drawn) [Example 1210] ({CH2CO}-Y[ξP][dD]P[dDap]D[ξP][dW][Dab]W[dNMeNle][dNMeNle]A[dC]G-NH2; thioether N-14)

pEC50 (CMV-specific T cells; [5]): 6.29
pIC50 (Human PD-L1/PD-1; read-out: HTRF IC50 value): 7.29
pIC50 ([1]; cell line of CBA not given (LK35.2-hPD-L1 or 293T-hPD-L1), read-out: CBA IC50 value): 7.03
Structure (SMILES): CCCC[C@@H]1C(=O)N(C)[C@H](CCCC)C(=O)N[C@@H](C)C(=O)N[C@@H](C(=O)NCC(N)=O)CSCC(=O)N[C@@H](Cc2ccc(O)cc2)C(=O)N2CCCC2C(=O)N[C@H](CC(=O)O)C(=O)N2CCC[C@H]2C(=O)N[C@H](Cc2c[nH]cn2)C(=O)N[C@@H](CCC(=O)O)C(=O)N2CCCC2C(=O)N[C@H](Cc2c[nH]c3ccccc23)C(=O)N[C@@H](CCN)C(=O)N[C@@H](Cc2c[nH]c3ccccc23)C(=O)N1C (stereo partly drawn) [Example 1215] ({CH2CO}-Y[ξP][dD]P[dH]E[ξP][dW][Dab]W[dNMeNle][dNMeNle]A[dC]G-NH2; thioether N-14)

Second part, the compound before the results:

Structure (SMILES): CCCC[C@H]1C(=O)N[C@@H](CCCNC(=N)N)C(=O)NC(C(=O)NCC(N)=O)CSCC(=O)N[C@@H](Cc2ccc(O)cc2)C(=O)N(C)[C@@H](C)C(=O)N[C@@H](CC(N)=O)C(=O)N2CCC[C@H]2C(=O)N[C@@H](Cc2cnc[nH]2)C(=O)N[C@@H](CC(C)C)C(=O)N2C[C@H](O)C[C@H]2C(=O)N[C@@H](Cc2c[nH]c3ccccc23)C(=O)N[C@@H](CO)C(=O)N[C@@H](Cc2c[nH]c3ccccc23)C(=O)N(C)[C@@H](CCSC)C(=O)N1C (stereo partly drawn) [Example 9026]
pEC50 (CMV-specific T cells; [2]): 7.46
pIC50 (Human PD-L1/PD-1; [3]): 8.46
pIC50 [1, 4]: 9.02

Structure (SMILES): CCCC[C@H]1C(=O)N(C)[C@@H](CCCC)C(=O)N[C@@H](CCCNC(=N)N)C(=O)NC(C(=O)NCC(N)=O)CSCC(=O)N[C@@H](Cc2ccc(O)cc2)C(=O)N(C)[C@@H](C)C(=O)N[C@@H](CC(N)=O)C(=O)N2CCC[C@H]2C(=O)N[C@@H](Cc2cnc[nH]2)C(=O)N[C@@H](CO)C(=O)N2CCC[C@H]2C(=O)N[C@@H](Cc2c[nH]c3ccccc23)C(=O)N[C@@H](CO)C(=O)N[C@@H](Cc2csc3ccccc23)C(=O)N1C (stereo partly drawn) [Example 9068] ({CH2CO}-Y[NMeA]NPHSPWS[Bta][NMeNle][NMeNle]R[ξC]G-NH2; thioether N-14)
pEC50 (CMV-specific T cells; [2]): 6.60
pIC50 (Human PD-L1/PD-1; [3]): 9.41
pIC50 [1, 4]: 8.69

Structure (SMILES): CCCC[C@H]1C(=O)N(C)[C@@H](CCCC)C(=O)N[C@@H](CCCNC(=N)N)C(=O)NC(C(=O)N[C@@H](CO)C(N)=O)CSCC(=O)N[C@@H](Cc2ccc(O)cc2)C(=O)N(C)[C@@H](C)C(=O)N[C@@H](CC(N)=O)C(=O)N2CCC[C@H]2C(=O)N[C@@H](Cc2cnc[nH]2)C(=O)N[C@@H](CC(C)C)C(=O)N2CCC[C@H]2C(=O)N[C@@H](Cc2c[nH]c3ccccc23)C(=O)N[C@@H](CO)C(=O)N[C@@H](Cc2csc3ccccc23)C(=O)N1C (stereo partly drawn) [Example 9031] ({CH2CO}-Y[NMeA]NPHLPWS[Bta][NMeNle][NMeNle]R[ξC]S-NH2; thioether N-14)
pEC50 (CMV-specific T cells; [2]): 7.40
pIC50 (Human PD-L1/PD-1; [3]): 8.15
pIC50 [1, 4]: 9.19

Structure (SMILES): CCCC[C@H]1C(=O)N2C[C@H](O)C[C@@H]2C(=O)N[C@@H](CC(=O)O)C(=O)N[C@@H](C(C)C)C(=O)N(C)[C@@H](Cc2ccccc2)C(=O)N[C@@H](Cc2ccc(O)cc2)C(=O)N2CCCC[C@@H]2C(=O)N[C@@H](Cc2c[nH]c3ccccc23)C(=O)N[C@@H](Cc2ccc(O)cc2)C(=O)N[C@@H](CC(C)C)C(=O)N[C@H](C(=O)NCC(N)=O)CSCC(=O)N[C@@H](Cc2cc(F)c(F)c(F)c2)C(=O)N(C)[C@@H](Cc2ccccc2)C(=O)N1C [Example 3590] ({CH2CO}-[Phe(3,4,5-F3)][NMeF][NMeNle][d(cisHyp)]DV[NMeF]Y[dPip]WYLCG-NH2; thioether N-13)
pEC50 (CMV-specific T cells; read-out: CMV Recall EC50 cluster, cluster symbol): 6.00
pIC50 (Human PD-L1/PD-1; [6]): 8.17 to 9.41
pIC50 ([1]; cell binding assay, cell line not given, cluster symbol, read-out: CBA IC50 cluster): 8.33 to 9.80
